Test results: ChEMBL document CHEMBL1132763, “8-Aminocyclazocine analogues: synthesis and structure-activity relationships” (Bioorg Med Chem Lett, 2000)
pKi: −log10 of the molar value.

Experiments:
[1] = Binding affinity was determined against Opioid receptor delta 1 obtained from guinea pig brain membranes using [3H]naltrindole as radioligand
[2] = target: Kappa-type opioid receptor (Cavia porcellus, UniProt P41144); experiment: Binding affinity was determined against Opioid receptor kappa 1 obtained from guinea pig brain membranes using [3H]U-69593 as radioligand
Mu-type opioid receptor = Mu-type opioid receptor (Cavia porcellus, UniProt P97266); experiment: Binding affinity was determined against Opioid receptor mu 1 obtained from guinea pig brain membranes using [3H]DAMGO as radioligand
Mu-type opioid receptor, sequence (P97266 whole entry): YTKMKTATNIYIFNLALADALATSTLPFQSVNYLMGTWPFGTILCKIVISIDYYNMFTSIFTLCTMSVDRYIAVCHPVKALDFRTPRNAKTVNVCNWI

Kappa-type opioid receptor, sequence (P41144 whole entry): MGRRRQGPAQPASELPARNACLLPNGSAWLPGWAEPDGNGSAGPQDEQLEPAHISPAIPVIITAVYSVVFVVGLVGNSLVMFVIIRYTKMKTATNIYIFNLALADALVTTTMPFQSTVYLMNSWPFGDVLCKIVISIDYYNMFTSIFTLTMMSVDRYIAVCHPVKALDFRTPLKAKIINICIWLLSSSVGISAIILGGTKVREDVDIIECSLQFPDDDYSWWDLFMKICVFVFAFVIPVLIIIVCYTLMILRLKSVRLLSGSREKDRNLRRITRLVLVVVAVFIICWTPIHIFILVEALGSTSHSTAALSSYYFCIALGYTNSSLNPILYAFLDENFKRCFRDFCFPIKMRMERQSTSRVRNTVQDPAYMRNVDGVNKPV

SMILES | pKi [1] | pKi [2] | pKi (Mu-type opioid receptor)
C[C@H]1[C@H]2Cc3ccc(O)cc3[C@]1(C)CCN2CC1CC1 [CYCLAZOCINE] | 9.24 | – | –
CNc1ccc2c(c1)[C@@]1(C)CCN(CC3CC3)C(C2)[C@@H]1C (mixture of isomers) | – | 8.07 | –
C[C@H]1C2Cc3ccc(N4CCN(C)CC4)cc3[C@@]1(C)CCN2CC1CC1 (mixture of isomers) | – | 8.06 | 7.68
C[C@H]1C2Cc3ccc(N4CCOCC4)cc3[C@@]1(C)CCN2CC1CC1 (mixture of isomers) | – | 6.25 | 6.19
C[C@H]1C2Cc3ccc(N)cc3[C@@]1(C)CCN2CC1CC1 (mixture of isomers) | – | 8.39 | 8.02
CCNc1ccc2c(c1)[C@@]1(C)CCN(CC3CC3)C(C2)[C@@H]1C (mixture of isomers) | – | 8.48 | 8.29
C[C@H]1[C@H]2Cc3ccc(Nc4ccccc4)cc3[C@@]1(C)CCN2CC1CC1 (stereo in doubt; (+)-12) | – | 7.57 | 7.34
C[C@H]1C2Cc3ccc(NCc4ccccc4)cc3[C@@]1(C)CCN2CC1CC1 (mixture of isomers) | – | 8.33 | 8.82
C[C@H]1C2Cc3ccc(N(C)Cc4ccccc4)cc3[C@@]1(C)CCN2CC1CC1 (mixture of isomers) | – | 7.36 | 7.25
C[C@@H]1[C@@H]2Cc3ccc(O)cc3[C@@]1(C)CN2CC1CC1 | – | 7.12 | 6.44
C[C@H]1C2Cc3ccc(N4CCCC4)cc3[C@@]1(C)CCN2CC1CC1 (mixture of isomers) | – | 6.39 | –
C[C@H]1[C@H]2Cc3ccc(O)cc3[C@@]1(C)CCN2CC1CC1 (racemic) | – | 9.74 | –
C[C@H]1[C@H]2Cc3ccc(Nc4ccccc4)cc3[C@@]1(C)CCN2CC1CC1 (stereo in doubt; (-)-11) | – | 9.27 | 8.96
C[C@H]1C2Cc3ccc(N)cc3[C@@]1(C)CCN2CC1CC1 (stereo in doubt; (+)-6) | – | 6.30 | 6.11
C[C@H]1[C@H]2Cc3ccc(Nc4ccccc4)cc3[C@@]1(C)CCN2CC1CC1 (racemic) | – | 9.08 | 8.89
C[C@H]1C2Cc3ccc(N)cc3[C@@]1(C)CCN2CC1CC1 (stereo in doubt; (-)-5) | – | 8.92 | 8.74
C[C@H]1C2Cc3ccc(NCc4ccccc4)cc3[C@@]1(C)CCN2CC1CC1 (stereo in doubt; (-)-14) | – | 8.68 | 9.17
C[C@H]1C2Cc3ccc(N(C)C)cc3[C@@]1(C)CCN2CC1CC1 (mixture of isomers) | – | 7.48 | 7.09
C[C@H]1C2Cc3ccc(NCCc4ccccc4)cc3[C@@]1(C)CCN2CC1CC1 (mixture of isomers) | – | 7.96 | 8.05
C[C@H]1C2Cc3ccc(N4CCCCC4)cc3[C@@]1(C)CCN2CC1CC1 (mixture of isomers) | – | 6.52 | 6.02
CC(C)Nc1ccc2c(c1)[C@@]1(C)CCN(CC3CC3)C(C2)[C@@H]1C (mixture of isomers) | – | 7.11 | 6.62
